The NIST ThermoML archive (doi:10.1016/j.jct.2018.12.031)
± gives the expanded uncertainty stated by the source.

Test: xn = mol fraction of the nth substance listed
Conditions: 100 kPa, Liquid; for speed of sound: Frequency=3 MHz, Linear variable-path acoustic interferometer; for mass density: Pycnometric method

N#Cc1ccccc1 [benzonitrile] + C=C(C)C(=O)OC
Conditions | mass density, 293.15 K [kg/m3] | mass density, 298.15 K [kg/m3] | mass density, 303.15 K [kg/m3] | speed of sound, 293.15 K [m/s] | speed of sound, 298.15 K [m/s] | speed of sound, 303.15 K [m/s]
x1 = 0.0652 | 948.11 ± 1 | 942.55 ± 1 | 936.99 ± 1 | 1220.4 ± 1.6 | 1203.9 ± 1.6 | 1189.3 ± 1.6
x1 = 0.1303 | 952.71 ± 1 | 947.32 ± 1 | 941.93 ± 1 | 1239.9 ± 1.6 | 1223.6 ± 1.6 | 1209 ± 1.6
x1 = 0.1922 | 956.98 ± 1 | 951.75 ± 1 | 946.52 ± 1 | 1258.1 ± 1.6 | 1241.7 ± 1.6 | 1227 ± 1.6
x1 = 0.271 | 962.27 ± 1 | 957.23 ± 1 | 952.19 ± 1 | 1279.6 ± 1.7 | 1263.3 ± 1.6 | 1248.3 ± 1.6
x1 = 0.3371 | 966.59 ± 1 | 961.71 ± 1 | 956.83 ± 1 | 1296.9 ± 1.7 | 1280.2 ± 1.7 | 1265.4 ± 1.6
x1 = 0.4174 | 971.69 ± 1 | 966.99 ± 1 | 962.29 ± 1 | 1316.8 ± 1.7 | 1299.9 ± 1.7 | 1284.8 ± 1.7
x1 = 0.4872 | 976 ± 1 | 971.45 ± 1 | 966.9 ± 1 | 1333.2 ± 1.7 | 1316.2 ± 1.7 | 1300.8 ± 1.7
x1 = 0.5689 | 980.9 ± 1 | 976.51 ± 1 | 972.12 ± 1 | 1351.4 ± 1.7 | 1334.3 ± 1.7 | 1319 ± 1.7
x1 = 0.6398 | 985.02 ± 1 | 980.77 ± 1 | 976.52 ± 1 | 1366.6 ± 1.7 | 1349.3 ± 1.7 | 1333.8 ± 1.7
x1 = 0.7089 | 988.92 ± 1 | 984.8 ± 1 | 980.68 ± 1 | 1381.1 ± 1.7 | 1363.6 ± 1.7 | 1348 ± 1.7
x1 = 0.7767 | 992.63 ± 1 | 988.63 ± 1 | 984.63 ± 1 | 1394.4 ± 1.7 | 1376.7 ± 1.7 | 1360.9 ± 1.7
x1 = 0.8571 | 996.88 ± 1 | 993.01 ± 1 | 989.14 ± 1 | 1410 ± 1.7 | 1392.3 ± 1.7 | 1376 ± 1.7
x1 = 0.9252 | 1000.34 ± 1 | 996.57 ± 1 | 992.8 ± 1 | 1422.4 ± 1.7 | 1404.6 ± 1.7 | 1388.2 ± 1.7
x1 = 1 | 1003.99 ± 1 | 1000.32 ± 1 | 996.65 ± 1 | 1436.9 ± 1.7 | 1418.2 ± 1.7 | 1400.7 ± 1.7
